Earlier results in publication PMC4990482 (Nature chemical biology, 2016).

Tested on: EZH2

For CC[C@H](C)n1cc(C)c2c(C(=O)NCc3c(C)cc(C)[nH]c3=O)cc(-c3ccc(N4CCNCC4)nc3)cc21 [GSK126], the “selectivity for EZH2 versus EZH1” value is given as over 150 fold.
